From ChEMBL document CHEMBL1201862, “PubChem BioAssay data set” (2004)
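96-well plates; 48 h exposure; 5 concentrations. Endpoints by linear interpolation between flanking doses. Not reached: highest tested concentration assigned. GI50 = concentration required for 50% inhibition of growth.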 The source made the active and inactive calls. Cut-off read from the data, not from the text of the source: active = GI50 up to about 1.1 µM and inactive = higher.

Experiments:
Assay in all cases: growth of human tumour cells (NCI), 48 h
MDA-MB-435 = tested on: MDA-MB-435
SK-MEL-5 = tested on: SK-MEL-5
HOP-62 = tested on: HOP-62
SF-295 = tested on: SF-295
SR = tested on: SR
TK-10 = tested on: TK-10
OVCAR-3 = tested on: OVCAR-3
RPMI-8226 = tested on: RPMI-8226
NCI-H522 = tested on: NCI-H522
OVCAR-5 = tested on: OVCAR-5
MOLT-4 = tested on: MOLT-4
IGROV-1 = tested on: IGROV-1
UACC-62 = tested on: UACC-62
SF-539 = tested on: SF-539
SNB-75 = tested on: SNB-75
PC-3 = tested on: PC-3
K562 = tested on: K562
SK-MEL-2 = tested on: SK-MEL-2
SK-OV-3 = tested on: SK-OV-3
HL-60 = tested on: HL-60

Compound	GI50 (MDA-MB-435)	GI50 (SK-MEL-5)	GI50 (HOP-62)	GI50 (SF-295)	GI50 (SR)	GI50 (TK-10)	GI50 (OVCAR-3)	GI50 (RPMI-8226)	GI50 (NCI-H522)	GI50 (OVCAR-5)	GI50 (MOLT-4)	GI50 (IGROV-1)	GI50 (UACC-62)	GI50 (SF-539)	GI50 (SNB-75)	GI50 (PC-3)	GI50 (K562)	GI50 (SK-MEL-2)	GI50 (SK-OV-3)	GI50 (HL-60)
COc1cccc(C2c3cc4c(cc3OC(N3CCOCC3)C2C)OCO4)c1OC (stereo unspecified)	10 µM (inactive)	9.59 µM (inactive)	11.4 µM (inactive)	2.84 µM (inactive)	4.75 µM (inactive)	15.5 µM (inactive)	3.04 µM (inactive)	6.59 µM (inactive)	4.26 µM (inactive)	13.1 µM (inactive)	4.28 µM (inactive)	3.46 µM (inactive)	15.4 µM (inactive)	10.6 µM (inactive)	4.88 µM (inactive)	11.3 µM (inactive)	2.07 µM (inactive)	6.41 µM (inactive)	–	–
CC(C)(C)[Si](C)(C)OCC1OC(n2ccc(=O)[nH]c2=O)C(O[Si](C)(C)C(C)(C)C)/C1=N/O (stereo unspecified)	3.11 µM (inactive)	2.45 µM (inactive)	4.63 µM (inactive)	4.74 µM (inactive)	2.71 µM (inactive)	6.68 µM (inactive)	8.67 µM (inactive)	2.73 µM (inactive)	–	3.9 µM (inactive)	2.43 µM (inactive)	4.18 µM (inactive)	5.96 µM (inactive)	3.11 µM (inactive)	18.5 µM (inactive)	3.99 µM (inactive)	2.77 µM (inactive)	3.21 µM (inactive)	6.41 µM (inactive)	–
COc1ccc2nc3n(c2c1)C(c1c(F)cccc1F)SC3 (stereo unspecified)	39.1 µM (inactive)	33.2 µM (inactive)	61.7 µM (inactive)	38.6 µM (inactive)	37.9 µM (inactive)	77.4 µM (inactive)	28.6 µM (inactive)	29.9 µM (inactive)	–	> 100 µM (inactive)	32.4 µM (inactive)	40.1 µM (inactive)	56.9 µM (inactive)	> 100 µM (inactive)	74.6 µM (inactive)	29.7 µM (inactive)	50.4 µM (inactive)	11.1 µM (inactive)	> 100 µM (inactive)	23.3 µM (inactive)
O=C(O)c1ccc(/C=N\N(CCO)C2=NCCN2)cc1	> 100 µM (inactive)	> 100 µM (inactive)	> 100 µM (inactive)	> 100 µM (inactive)	> 100 µM (inactive)	> 100 µM (inactive)	> 100 µM (inactive)	> 100 µM (inactive)	–	> 100 µM (inactive)	> 100 µM (inactive)	> 100 µM (inactive)	> 100 µM (inactive)	> 100 µM (inactive)	66.5 µM (inactive)	> 100 µM (inactive)	> 100 µM (inactive)	> 100 µM (inactive)	> 100 µM (inactive)	> 100 µM (inactive)
Nc1cc(C(=O)O)nc(O)n1	> 100 µM (inactive)	> 100 µM (inactive)	> 100 µM (inactive)	> 100 µM (inactive)	> 100 µM (inactive)	> 100 µM (inactive)	> 100 µM (inactive)	> 100 µM (inactive)	> 100 µM (inactive)	> 100 µM (inactive)	> 100 µM (inactive)	> 100 µM (inactive)	> 100 µM (inactive)	–	–	> 100 µM (inactive)	> 100 µM (inactive)	> 100 µM (inactive)	> 100 µM (inactive)	> 100 µM (inactive)
COc1nc2ccc(COc3ccc(C(=O)O)cc3)cc2nc1OC	33.7 µM (inactive)	> 100 µM (inactive)	> 100 µM (inactive)	32.9 µM (inactive)	41.4 µM (inactive)	–	> 100 µM (inactive)	–	> 100 µM (inactive)	> 100 µM (inactive)	> 100 µM (inactive)	> 100 µM (inactive)	33.6 µM (inactive)	45.5 µM (inactive)	11.7 µM (inactive)	71.4 µM (inactive)	67.1 µM (inactive)	> 100 µM (inactive)	> 100 µM (inactive)	53.8 µM (inactive)
OCN(CO)c1ccc2c(c1)Cc1cc(F)ccc1-2	18.1 µM (inactive)	11.2 µM (inactive)	44.1 µM (inactive)	15.3 µM (inactive)	22.6 µM (inactive)	18.7 µM (inactive)	13.9 µM (inactive)	–	19.5 µM (inactive)	19.1 µM (inactive)	25.2 µM (inactive)	19.3 µM (inactive)	16.6 µM (inactive)	22.3 µM (inactive)	19.1 µM (inactive)	16.7 µM (inactive)	20.9 µM (inactive)	21 µM (inactive)	25.2 µM (inactive)	29.1 µM (inactive)
COCCOCCOCCC(=O)NC1CC2CCC1(C)C2(C)C (stereo unspecified)	> 100 µM (inactive)	> 100 µM (inactive)	> 100 µM (inactive)	> 100 µM (inactive)	> 100 µM (inactive)	> 100 µM (inactive)	> 100 µM (inactive)	> 100 µM (inactive)	–	> 100 µM (inactive)	> 100 µM (inactive)	> 100 µM (inactive)	> 100 µM (inactive)	> 100 µM (inactive)	> 100 µM (inactive)	> 100 µM (inactive)	> 100 µM (inactive)	–	> 100 µM (inactive)	> 100 µM (inactive)
O=C1CCC[C@H]2O[C@@H](COCc3ccccc3)C[C@@H]12	> 100 µM (inactive)	> 100 µM (inactive)	> 100 µM (inactive)	> 100 µM (inactive)	> 100 µM (inactive)	> 100 µM (inactive)	> 100 µM (inactive)	> 100 µM (inactive)	–	> 100 µM (inactive)	> 100 µM (inactive)	–	> 100 µM (inactive)	> 100 µM (inactive)	> 100 µM (inactive)	> 100 µM (inactive)	> 100 µM (inactive)	> 100 µM (inactive)	> 100 µM (inactive)	> 100 µM (inactive)
Cc1ccc(C)c(COCCOCn2cc(N3CCOCC3)c(=O)[nH]c2=O)c1	> 100 µM (inactive)	–	–	> 100 µM (inactive)	> 100 µM (inactive)	> 100 µM (inactive)	–	–	> 100 µM (inactive)	> 100 µM (inactive)	> 100 µM (inactive)	> 100 µM (inactive)	> 100 µM (inactive)	> 100 µM (inactive)	> 100 µM (inactive)	> 100 µM (inactive)	> 100 µM (inactive)	> 100 µM (inactive)	> 100 µM (inactive)	3.63 µM (inactive)
COC(=O)c1cc(C)n(CN(Cc2ccccc2)Cn2nc(C(=O)OC)cc2C)n1	> 100 µM (inactive)	99.1 µM (inactive)	> 100 µM (inactive)	> 79.8 µM (inactive)	0.873 µM (active)	> 100 µM (inactive)	> 100 µM (inactive)	> 41 µM (inactive)	> 100 µM (inactive)	> 82.2 µM (inactive)	> 100 µM (inactive)	> 66.1 µM (inactive)	> 31.9 µM (inactive)	> 45.9 µM (inactive)	> 27.2 µM (inactive)	> 65.5 µM (inactive)	> 100 µM (inactive)	> 100 µM (inactive)	> 100 µM (inactive)	–
Clc1c(Cl)c(Cl)c2nn(C3CCCO3)nc2c1Cl (stereo unspecified)	44.3 µM (inactive)	25.5 µM (inactive)	28.1 µM (inactive)	39.4 µM (inactive)	52.6 µM (inactive)	69.8 µM (inactive)	43 µM (inactive)	–	37.3 µM (inactive)	> 100 µM (inactive)	30.5 µM (inactive)	32.4 µM (inactive)	60.3 µM (inactive)	86.9 µM (inactive)	–	82 µM (inactive)	40.7 µM (inactive)	68.1 µM (inactive)	> 100 µM (inactive)	–
COc1cc2c(cc1OCCCNC(=O)c1cc3ccccc3[nH]1)N=C[C@@H]1CCCN1C2=O	0.243 µM (active)	0.195 µM (active)	0.326 µM (active)	0.405 µM (active)	0.19 µM (active)	0.359 µM (active)	0.306 µM (active)	0.474 µM (active)	0.0141 µM (active)	0.352 µM (active)	0.125 µM (active)	0.277 µM (active)	0.234 µM (active)	0.24 µM (active)	0.263 µM (active)	0.358 µM (active)	0.243 µM (active)	0.179 µM (active)	1.6 µM (inactive)	–
S=C(c1c[nH]c2ccccc12)N1CCCCC1	85.5 µM (inactive)	40 µM (inactive)	> 100 µM (inactive)	62.1 µM (inactive)	> 100 µM (inactive)	> 100 µM (inactive)	> 100 µM (inactive)	36.9 µM (inactive)	–	> 100 µM (inactive)	58.1 µM (inactive)	67.9 µM (inactive)	> 100 µM (inactive)	> 100 µM (inactive)	–	49.8 µM (inactive)	72.4 µM (inactive)	> 100 µM (inactive)	> 100 µM (inactive)	70.6 µM (inactive)
COC(=O)c1c(O)ccc2c1c1c(n2Cc2ccc(Cl)cc2Cl)C(=O)c2ccccc2C1	45.1 µM (inactive)	89.5 µM (inactive)	> 100 µM (inactive)	–	36.3 µM (inactive)	> 100 µM (inactive)	49.2 µM (inactive)	19.7 µM (inactive)	–	–	39.1 µM (inactive)	50.8 µM (inactive)	> 100 µM (inactive)	54.5 µM (inactive)	20 µM (inactive)	24.1 µM (inactive)	52.1 µM (inactive)	60.4 µM (inactive)	47.9 µM (inactive)	> 100 µM (inactive)
